# Laboratory results published in patent publication US8846666B2, “Oxathiazine derivatives which are substituted with benzyl or heteromethylene groups, method for producing them, their use as medicine and drug containing said derivatives and the use thereof” (Sanofi, priority 2011, dated 2014).
# Biological target: human 11β-HSD1 microsome fraction (Homo sapiens, UniProt P28845)
# Experiment: Enzymatic 11Beta-HSD1 test (SPA-based detection)
# Format: biochemical
# Details: [1,2-3H]-cortisone, NADPH, 37° C. for 1 hour
# Experimental: Enzymatic 11Beta-HSD1 Test:
# To measure the activity of the compounds, an SPA-based detection method (Solly et al. 2005) was employed. First of all, 20 μl of the human 11β-HSD1 microsome fraction (0.2 μg of protein), prepared in 50 mM HEPES, 0.1% BSA (w/v), were applied to a plate with 384 wells. The test compounds (0.09 μl) were applied to the assay plate in 100% DMSO. The reaction was started by addition of 20 μl of [1,2-^3H]-cortisone (0.1 μCi/[…]) in assay buffer comprising 25 mM HEPES, 100 mM KCl, 5 mM NaCl, 2 mM MgCl2 and 0.25 mM NADPH. The plate was agitated at 37° C. for 1 hour. At the same time, a stop solution comprising 20 mg/ml SPA-PVT beads, 1.6 mg/ml monoclonal cortisol antibody and 0.01 mM SSR110887 (inhibitor from the Biovitrium patent) in 50 mM HEPES, 1 M NaCl and 1 M KCl was stirred at room temperature. To stop the reaction, 25 μl of the stop solution were added to each well. The plate was agitated gently at room temperature for 1 further hour and then centrifuged at 500 gav for 1 min, in order that the SPA beads could settle out. The plate was then read in a Wallac-1450-Microbeta unit with a standard SPA program (counting time 1 min/well). The comparative compound was glycyrrhetinic acid.
# Protein and radioactive substrate were dispensed with a Biomek FX unit (Beckman Coulter) for handling liquids. The test compounds were added with a Cybi-Well equipped with a 90 nl pin tool (CyBio).
# Lit.: Solly S, Mundt S S, Zokian H J, Juy-Fang Ding G, Hermanowski-Vosatka A, Strulovici B and Zheng W. High-throughput screening of 11β-Hydroxysteroid dehydrogenase type 1 in scintillation proximity format. Assay Drug Dev Technol 2005; 3:377-384.
# human 11β-HSD1 microsome fraction, sequence (P28845 whole entry): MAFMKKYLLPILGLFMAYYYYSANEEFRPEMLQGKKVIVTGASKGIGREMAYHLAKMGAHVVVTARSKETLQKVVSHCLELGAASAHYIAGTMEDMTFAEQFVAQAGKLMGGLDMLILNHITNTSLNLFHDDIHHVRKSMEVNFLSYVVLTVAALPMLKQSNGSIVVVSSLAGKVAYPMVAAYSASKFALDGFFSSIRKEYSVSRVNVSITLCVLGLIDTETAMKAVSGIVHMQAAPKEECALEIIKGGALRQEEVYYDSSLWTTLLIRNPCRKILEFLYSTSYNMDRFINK
row,SMILES,IC50
1,"C[C@H](NC1=NS(=O)(=O)C(Cc2ccc(N3CCN(C(C)(C)C)CC3)cc2)C(C)(C)O1)c1ccccc1F (stereo partly drawn) [Example 39, {5-[4-(4-tert-Butyl-piperazin-1-yl)-benzyl]-6,6-dimethyl-4,4-dioxo-5,6-dihydro-4H-4lambda6-[1,4,3]oxathiazin-2-yl}-[(S)-1-(2-fluorophenyl)-ethyl]-amine]",17 nM
2,"CC1(C)OC(N[C@@H](CCO)c2cccc(Cl)c2)=NS(=O)(=O)C1Cc1ccccc1 (stereo partly drawn) [Example 16, (S)-3-(5-Benzyl-6,6-dimethyl-4,4-dioxo-5,6-dihydro-4H-4lambda6-[1,4,3]oxathiazin-2-ylamino)-3-(3-chlorophenyl)-propan-1-ol]",6 nM
3,C[C@H](NC1=NS(=O)(=O)[C@H](Cc2ccc(C3CCN(C)CC3)cc2)C(C)(C)O1)c1ccccc1F [Example 50],52 nM
4,"CC1(C)OC(N[C@@H](CCO)c2ccccc2F)=NS(=O)(=O)C1Cc1ccc(C2CCN(CC3CC3)CC2)cc1 (stereo partly drawn) [Example 30, (S)-3-{5-[4-(1-Cyclopropylmethyl-piperidin-4-yl)-benzyl]-6,6-dimethyl-4,4-dioxo-5,6-dihydro-4H-4lambda6-[1,4,3]oxathiazin-2-ylamino}-3-(2-fluoro-phenyl)-propan-1-ol]",29 nM
5,"COCCN1CCC(c2ccc(CC3C(C)(C)OC(N[C@@H](C)c4ccccc4F)=NS3(=O)=O)cc2)CC1 (stereo partly drawn) [Example 40, [(S)-1-(2-fluorophenyl)-ethyl]-(5-{4-[1-(2-methoxy-ethyl)-piperidin-4-yl]-benzyl}-6,6-dimethyl-4,4-dioxo-5,6-dihydro-4H-4lambda6-[1,4,3]oxathiazin-2-yl)-amine]",25 nM
6,C[C@H](NC1=NS(=O)(=O)[C@@H](Cc2ccc(C3CCN(C)CC3)cc2)C(C)(C)O1)c1ccccc1F [Example 51],6 nM
7,"C[C@H](NC1=NS(=O)(=O)[C@H](Cc2ccc(N3CCNCC3)cc2)C(C)(C)O1)c1ccccc1F [Example 45, [(R)-6,6-Dimethyl-4,4-dioxo-5-(4-piperazin-1-yl-benzyl)-5,6-dihydro-4H-4lambda6-[1,4,3]oxathiazin-2-yl]-[(S)-1-(2-fluorophenyl)-ethyl]-amine]",44 nM
8,"C[C@H](NC1=NS(=O)(=O)[C@@H](Cc2ccc(C3CCN(C4COC4)CC3)cc2)C(C)(C)O1)c1ccccc1F [Example 53, {(S)-6,6-Dimethyl-5-[4-(1-oxetan-3-yl-piperidin-4-yl)-benzyl]-4,4-dioxo-5,6-dihydro-4H-4lambda6-[1,4,3]oxathiazin-2-yl}-[(S)-1-(2-fluorophenyl)-ethyl]-amine]",9 nM
9,"C[C@H](NC1=NS(=O)(=O)C(Cc2ccc(C3CCN(C4CC4)CC3)cc2)C(C)(C)O1)c1ccccc1F (stereo partly drawn) [Example 43, {5-[4-(1-Cyclopropyl-piperidin-4-yl)-benzyl]-6,6-dimethyl-4,4-dioxo-5,6-dihydro-4H-4lambda6-[1,4,3]oxathiazin-2-yl}-[(S)-1-(2-fluorophenyl)-ethyl]-amine]",11 nM
10,"C[C@H](NC1=NS(=O)(=O)C(Cc2ccc(C3CCNCC3)cc2)C(C)(C)O1)c1ccccc1F (stereo partly drawn) [Example 38, [6,6-Dimethyl-4,4-dioxo-5-(4-piperidin-4-yl-benzyl)-5,6-dihydro-4H-4lambda6-[1,4,3]oxathiazin-2-yl]-[(S)-1-(2-fluorophenyl)-ethyl]-amine]",7 nM
11,"C[C@H](NC1=NS(=O)(=O)[C@@H](Cc2ccc(OCC(C)(C)N)cc2)C(C)(C)O1)c1ccccc1F [Example 55, {(S)-5-[4-(2-Amino-2-methyl-propoxy)-benzyl]-6,6-dimethyl-4,4-dioxo-5,6-dihydro-4H-4lambda6-[1,4,3]oxathiazin-2-yl}-[(S)-1-(2-fluorophenyl)-ethyl]-amine]",8 nM
12,"C[C@H](NC1=NS(=O)(=O)C(Cc2ccc(C3CCN(CCO)CC3)cc2)C(C)(C)O1)c1ccccc1F (stereo partly drawn) [Example 37, 2-[4-(4-{2-[(S)-1-(2-fluorophenyl)-ethylamino]-6,6-dimethyl-4,4-dioxo-5,6-dihydro-4H-4lambda6-[1,4,3]oxathiazin-5-ylmethyl}-phenyl)-piperidin-1-yl]-ethanol]",37 nM

# Now from value to compound:
row,IC50,SMILES
1,8 nM,"CC1(C)OC(N[C@@H](CCO)c2ccccc2F)=NS(=O)(=O)[C@@H]1Cc1ccc(C2CCNCC2)cc1 [Example 34, (S)-3-[(R)-6,6-Dimethyl-4,4-dioxo-5-(4-piperidin-4-yl-benzyl)-5,6-dihydro-4H-4lambda6-[1,4,3]oxathiazin-2-ylamino]-3-(2-fluorophenyl)-propan-1-ol]"
2,5 nM,"CC1(C)OC(N[C@@H](CCO)c2ccc(F)cc2F)=NS(=O)(=O)C1Cc1ccccc1 (stereo partly drawn) [Example 18, (S)-3-(5-Benzyl-6,6-dimethyl-4,4-dioxo-5,6-dihydro-4H-4lambda6-[1,4,3]oxathiazin-2-ylamino)-3-(2,4-difluorophenyl)-propan-1-ol]"
3,5 nM,CC1(C)OC(N[C@@H](CCO)c2ccccc2F)=NS(=O)(=O)C1Cc1ccc(C2CCN(CCO)CC2)cc1 (some centres unmarked) [Example 27]
4,32 nM,"CN(C)CCCc1ccc(CC2C(C)(C)OC(N[C@@H](CCO)c3ccccc3F)=NS2(=O)=O)cc1 (stereo partly drawn) [Example 32, (S)-3-{5-[4-(3-Dimethylamino-propyl)-benzyl]-6,6-dimethyl-4,4-dioxo-5,6-dihydro-4H-4lambda6-[1,4,3]oxathiazin-2-ylamino}-3-(2-fluorophenyl)-propan-1-ol]"
5,16 nM,CC1(C)OC(N[C@@H](CCO)c2ccccc2F)=NS(=O)(=O)C1Cc1ccc(C2CCN(CCCO)CC2)cc1 (some centres unmarked) [Example 26]
6,11 nM,"CC1(C)OC(N[C@@H](CCO)c2ccccc2F)=NS(=O)(=O)[C@H]1Cc1ccc(C2CCNCC2)cc1 [Example 35, (S)-3-[(S)-6,6-Dimethyl-4,4-dioxo-5-(4-piperidin-4-yl-benzyl)-5,6-dihydro-4H-4lambda6-[1,4,3]oxathiazin-2-ylamino]-3-(2-fluorophenyl)-propan-1-ol]"
7,4 nM,"CC1(C)OC(N[C@@H](CCO)c2ccccc2F)=NS(=O)(=O)C1Cc1ccccc1 (stereo partly drawn) [Example 12, (S)-3-(5-Benzyl-6,6-dimethyl-4,4-dioxo-5,6-dihydro-4H-4lambda6-[1,4,3]oxathiazin-2-ylamino)-3-(2-fluorophenyl)-propan-1-ol]"
8,7 nM,"CC1(C)OC(N[C@@H](CCO)c2ccccc2F)=NS(=O)(=O)C1Cc1ccc(C2CCN(CCC(F)(F)F)CC2)cc1 (stereo partly drawn) [Example 29, (S)-3-(6,6-Dimethyl-4,4-dioxo-5-{4-[1-(3,3,3-trifluoropropyl)-piperidin-4-yl]-benzyl}-5,6-dihydro-4H-4lambda6-[1,4,3]oxathiazin-2-ylamino)-3-(2-fluorophenyl)-propan-1-ol]"
9,6 nM,"CC1(C)OC(N[C@@H](CCO)c2ccccc2F)=NS(=O)(=O)C1(C)Cc1ccc(-c2ccccn2)cc1 (stereo partly drawn) [Example 6, (S)-3-(2-Fluorophenyl)-3-[5,6,6-trimethyl-4,4-dioxo-5-(4-pyridin-2-yl-benzyl)-5,6-dihydro-4H-4lambda6-[1,4,3]oxathiazin-2-ylamino]-propan-1-ol]"
10,12 nM,"CC1(C)OC(N[C@@H](CCO)c2ccccc2F)=NS(=O)(=O)C1(C)Cc1ccc(-c2ccc(C(F)(F)F)cn2)cc1 (stereo partly drawn) [Example 7, (S)-3-(2-Fluorophenyl)-3-{5,6,6-trimethyl-4,4-dioxo-5-[4-(5-trifluoromethyl-pyridin-2-yl)-benzyl]-5,6-dihydro-4H-4lambda6-[1,4,3]oxathiazin-2-ylamino}-propan-1-ol]"
11,7 nM,"CC1(C)OC(N[C@@H](CCO)c2ccccc2F)=NS(=O)(=O)C1Cc1ccc(C2CCNCC2)cc1 (stereo partly drawn) [Example 22, (S)-3-[6,6-Dimethyl-4,4-dioxo-5-(4-piperidin-4-yl-benzyl)-5,6-dihydro-4H-4lambda6-[1,4,3]oxathiazin-2-ylamino]-3-(2-fluorophenyl)-propan-1-ol]"
12,5 nM,"CC1(C)OC(N[C@@H](CCO)c2ccccc2F)=NS(=O)(=O)[C@H]1Cc1ccc(C2CCN(C3CC3)CC2)cc1 [Example 42, (S)-3-{(S)-5-[4-(1-Cyclopropyl-piperidin-4-yl)-benzyl]-6,6-dimethyl-4,4-dioxo-5,6-dihydro-4H-4lambda6-[1,4,3]oxathiazin-2-ylamino}-3-(2-fluoro-phenyl)-propan-1-ol]"
13,32 nM,"CC1(C)OC(N[C@@H](CCO)c2ccccc2F)=NS(=O)(=O)[C@@H]1Cc1ccc(C2CCN(C3CC3)CC2)cc1 [Example 41, (S)-3-{(R)-5-[4-(1-Cyclopropyl-piperidin-4-yl)-benzyl]-6,6-dimethyl-4,4-dioxo-5,6-dihydro-4H-4lambda6-[1,4,3]oxathiazin-2-ylamino}-3-(2-fluoro-phenyl)-propan-1-ol]"
14,4 nM,"CC1(C)OC(N[C@@H](CCO)c2cc(Cl)ccc2F)=NS(=O)(=O)C1Cc1ccccc1 (stereo partly drawn) [Example 14, (S)-3-(5-Benzyl-6,6-dimethyl-4,4-dioxo-5,6-dihydro-4H-4lambda6-[1,4,3]oxathiazin-2-ylamino)-3-(5-chloro-2-fluorophenyl)-propan-1-ol]"
